Data published in patent US4596873A, “1,4,5,6,7,8-Hexahydro-2-alkyl-4-aryl-5-oxo-1,7-naphthyridine-3-carboxyl ic acid aromatic esters and pharmaceutically acceptable acid addition salts thereof useful as antihypertensive agents” (American Home Products Corporation, priority 1985, dated 1986).

Assays:
[1] = tested on: isolated paced intact rabbit atria; assay: negative inotropic (cardiac depressant) effect in isolated paced intact rabbit atria; format: cell-based; conditions: for IC25: Oryctolagus cuniculus, read-out: IC25 (concentration which produces 25% inhibition of isometric force)
Procedure: The potential for detrimental cardiac depressant (negative inotropic) effects of the compounds of this invention was assessed in isolated paced intact rabbit atria. Left and right atria (with nodal tissue excised) were suspended vertically in a jacketed (30° C.) organ bath containing 50 ml of PSS and aerated with 95% O2 /5% CO2. Muscles (N=5-9/compound) were stimulated at a frequency of 3 Hz with a WPI stimulator for a 60 minute equilibration period. Changes in isometric force were recorded as described for the aortic smooth muscle experiments,supra. Following equilibration, the test compound (or as a control, the ethanol vehicle) was added to the organ bath in a cumulative manner from doses ranging from 10^-9 M to 10^-5 M (10^-5 M was the maximum dose which could be attained due to the depressant effect of ethanol) and effects on developed isometric force were determined.
(§1) The following examples illustrate the preparation of a representative number of compounds of this invention. After each example, and Ca^+2 antagonist activity of the compound is presented in terms of percent relaxation of aortic tissue (P.R.) at 10^-5 M concentration. […] Inhibition of superprecipitation (Antag. of Actin-Myosin interaction) is expressed as percent inhibition (mean±standard error of the mean for at least 3 separate experiments) at a compound concentration. In the same manner, inhibition of myosin light chain phosphorylation (Antag. of MLCP) is expressed as a percent inhibition at a compound concentration. Similarly, the antihypertensive activity is reported in terms of millimeters mercury (mmHg) systolic blood pressure (B.P.) reduction at the stated time post 50 mg/kg oral dosing or other dosing as indicated.

[2] = tested on: arterial actin-myosin interactions; assay: inhibition of superprecipitation (antagonism of arterial actin-myosin interaction); format: biochemical; conditions: six minute time-point, mean±SEM
Procedure: (§2) The data reported herein was obtained at a six minute time-point rather than the 1.5, 5 and 12 minute time points indicated in the superprecipitation assay of the Silver et al. paper.
as §1

[3] = tested on: Ca^+2 -calmodulin dependent myosin light chain phosphorylation; assay: inhibition of Ca^+2-calmodulin dependent myosin light chain phosphorylation (MLCP); format: biochemical
Procedure: as §2, §1

[4] = tested on: spontaneously hypertensive rats; assay: decrease in systolic blood pressure of spontaneously hypertensive rats; format: in vivo, rat
[5] = 3 Hz, cumulative 10^-9 M to 10^-5 M

Structure (SMILES)	inhibition of superprecipitation (Antag. of Actin-Myosin) ([2]; 50 μM) [%]	inhibition of superprecipitation (Antag. of Actin-Myosin) ([2]; 100 μM) [%]	inhibition of myosin light chain phosphorylation (Antag. of MLCP) ([3]; 50 μM) [%]	inhibition of myosin light chain phosphorylation (Antag. of MLCP) ([3]; 100 μM) [%]	systolic blood pressure (B.P.) reduction ([4]; 25 mg/kg, 1.5 hours) [mmHg]	systolic blood pressure (B.P.) reduction ([4]; 25 mg/kg, 4 hours) [mmHg]	IC25 [1, 5] [nM]	cardiac depression / negative inotropism (in words) [1]	further results
CC1=C(C(=O)OCCOc2ccccc2)C(c2c(F)c(F)c(F)c(F)c2F)C2=C(CNCC2=O)N1 (single isomer, unassigned; (+)) [Example 4, (+)-1,4,5,6,7,8-Hexahydro-2-methyl-5-oxo-4-(pentafluorophenyl)-1,7-naphthyridine-3-carboxylic acid 2-phenoxyethyl ester]	38	71	37	67	-58	-78			IC25 (concentration which produces 25% inhibition of isometric force) [1, 5]: 800 nM
COC(COC(=O)C1=C(C)NC2=C(C(=O)CNC2)C1c1c(F)c(F)c(F)c(F)c1F)c1ccccc1 (centres unmarked) [Example 5, 1,4,5,6,7,8-Hexahydro-2-methyl-5-oxo-4-(pentafluorophenyl)-1,7-naphthryridine-3-carboxylic acid 2-methoxy-2-phenylethyl ester]	50±5	75±4	48±2	70±3	-60	-72	1000		inhibition of superprecipitation (Antag. of Actin-Myosin) ([2]; 25 μM): 20±5%; inhibition of myosin light chain phosphorylation (Antag. of MLCP) ([3]; 25 μM): 21±3%; systolic blood pressure (B.P.) reduction ([4]; 5 mg/kg, 1.5 hours): -44 mmHg; systolic blood pressure (B.P.) reduction ([4]; 5 mg/kg, 4 hours): -38 mmHg; systolic blood pressure (B.P.) reduction ([4]; 10 mg/kg, 1.5 hours): -41 mmHg; systolic blood pressure (B.P.) reduction ([4]; 10 mg/kg, 4 hours): -68 mmHg
CO[C@H](COC(=O)C1=C(C)NC2=C(C(=O)CNC2)C1c1c(F)c(F)c(F)c(F)c1F)c1ccccc1 (stereo partly drawn) [Example 7, 1,4,5,6,7,8-Hexahydro-2-methyl-5-oxo-4-(pentafluorophenyl)-1,7-naphthyridine-3-carboxylic acid (S)-2-methoxy-2-phenylethyl ester]	67	80	59	74			6500		systolic blood pressure (B.P.) reduction ([4]; 10 mg/kg, 1.5 hours): -51 mmHg; systolic blood pressure (B.P.) reduction ([4]; 10 mg/kg, 4 hours): -54 mmHg
CC1=C(C(=O)OCCCCOc2ccccc2)C(c2c(F)c(F)c(F)c(F)c2F)C2=C(CNCC2=O)N1 (centres unmarked) [Example 21, 1,4,5,6,7,8-Hexahydro-2-methyl-5-oxo-4-(pentafluorophenyl)-1,7-naphthyridine-3-carboxylic acid 4-phenoxybutyl ester]		80		77	0	-49			
CC1=C(C(=O)OCCOc2cccc(Cl)c2Cl)C(c2c(F)c(F)c(F)c(F)c2F)C2=C(CNCC2=O)N1 (centres unmarked) [Example 22, 1,4,5,6,7,8-Hexahydro-2-methyl-5-oxo-4-(pentafluorophenyl)-1,7-naphthyridine-3-carboxylic acid 2-(2,3-dichlorophenoxy)ethyl ester]	75±4	78±1	73±1.5	74±2	-37	-52	1000		inhibition of superprecipitation (Antag. of Actin-Myosin) ([2]; 10 μM): 30±3%; inhibition of superprecipitation (Antag. of Actin-Myosin) ([2]; 25 μM): 54±3%; inhibition of myosin light chain phosphorylation (Antag. of MLCP) ([3]; 10 μM): 25%; inhibition of myosin light chain phosphorylation (Antag. of MLCP) ([3]; 25 μM): 54±2.5%
CC1=C(C(=O)OCCOc2ccccc2)C(c2c(F)ccc(C)c2Cl)C2=C(CNCC2=O)N1 (centres unmarked) [Example 23, 4-(2-chloro-6-fluoro-3-methylphenyl)-1,4,5,6,7,8-hexahydro-2-methyl-5-oxo-1,7-naphthyridine-3-carboxylic acid 2-phenoxyethyl ester]	23	62	18	56	-22	-31			
CC1=C(C(=O)OCCOc2ccccc2)C(c2c(F)ccc(Cl)c2Cl)C2=C(CNCC2=O)N1 (centres unmarked) [Example 24, 4-(2,3-Dichloro-6-fluorophenyl)-1,4,5,6,7,8-hexahydro-2-methyl-5-oxo-1,7-naphthyridine-3-carboxylic acid 2-phenoxyethyl ester]	54±3	72±1	50±2	68±1	-50	-70			inhibition of superprecipitation (Antag. of Actin-Myosin) ([2]; 25 μM): 9±2%; inhibition of myosin light chain phosphorylation (Antag. of MLCP) ([3]; 25 μM): 8±2%; systolic blood pressure (B.P.) reduction ([4]; 5 mg/kg, 1.5 hours): -17 mmHg; systolic blood pressure (B.P.) reduction ([4]; 5 mg/kg, 4 hours): -26 mmHg; systolic blood pressure (B.P.) reduction ([4]; 10 mg/kg, 1.5 hours): -6 mmHg; systolic blood pressure (B.P.) reduction ([4]; 10 mg/kg, 4 hours): -26 mmHg
COc1ccc(CCN(C)CCCC(C#N)(c2ccc(OC)c(OC)c2)C(C)C)cc1OC (centres unmarked) [Verapamil, reference compound]								direct negative inotropism	
CCOC(=O)C1=C(C)NC(C)=C(C(=O)OC)C1c1cccc(Cl)c1Cl (centres unmarked) [felodipine]							800	direct negative inotropism	
COC(=O)C1=C(C)NC(C)=C(C(=O)OC)C1c1ccccc1[N+](=O)[O-] [nifedipine, reference compound]								direct negative inotropism	
CCOC(=O)C1=C(C)NC(C)=C(C(=O)OC)C1c1cccc([N+](=O)[O-])c1 (centres unmarked) [nitrendipine, reference compound]								direct negative inotropism	
